# What was measured:
# [1] = system: DAM-related genes in 5xFAD mouse brain; test: nCounter NanoString neuropathology gene expression panel; type: in vivo
# Method: (§1) diAcCA or control vehicle was administered three times per week for 3 months to 5xFAD Tg or WT littermate control mice starting at approximately 5 months of age by oral gavage (designated here as “per os” or PO). Three different doses were used (10 mg/kg, 20 mg/kg, or 50 mg/kg). diAcCA was dissolved in olive oil vehicle, a non-polar organic solvent. For vehicle control, we administered olive oil alone. A total of 45 animals were used in this study, with 7–8 animals in each group.
# The hippocampus/cortex were isolated from the brain and RNA isolation was performed immediately using the Quick-RNA Miniprep kit (76211-580, VWR, Radnor, PA, USA). RNA was then analyzed by the Salk Institute Single-Cell & Spatial Omics Core for the nCounter Neuropathology panel (NanoString, Bruker Spatial Biology, Inc., Seattle, WA, USA). The list of genes included in the NanoString analysis is provided as Supplementary Information (Table S3). The analysis was performed using the following packages on R studio software version 4.2.3: readr 2.1.5, dplyr 1.1.4, clusterProfiler 4.6.2, org.mm.eg.db 3.16.0, ggplot2 3.5.1, and stringr 1.5.1.
# To elucidate the molecular underpinnings of the effect of diAcCA on neuroinflammation, we next analyzed disease-associated microglia (DAM) signatures in WT and 5xFAD mouse brains using nCounter® biomarker analysis (NanoString, Bruker Spatial Biology, Inc., […]). RNA was isolated from the hippocampus/cortex of WT and 5xFAD mice that had received three-month vehicle or diAcCA treatment, and a NanoString neuropathology gene expression panel was performed (Figure 4).
# 5xFAD mice = test: Morris water maze probe test; type: in vivo, mouse; conditions: for Morris water maze probe test, time in the platform quadrant zone: compared to WT control mice; for Morris water maze probe test, percentage of time in the target quadrant / Morris water maze probe test, time to first enter the platform zone: compared to WT controls
# Method: as §1
# The Morris water maze test is used to evaluate spatial learning and memory skills in rodents. In the experimental setup, mice are placed in a circular tank containing opaque water maintained at a consistent temperature of 21 ± 1 °C. The mice undergo 2 trials each day for a period of 4 days during which they are trained to find a hidden platform placed somewhere within the tank. The platform acts as an escape for the mice from swimming. The starting point of the mice in the tank is randomized; however, the location of the platform remains unchanged for a given mouse. After entering the water, the mice are given a maximum of 90 s to navigate to the platform and climb it. If a mouse is unable to find the platform in this duration, the experimenter offers gentle guidance to help it in reaching the platform. On day 5, after the training phase is over, a “probe trial” is conducted in which the platform is removed from the water maze. The mice are allowed to swim for a period of 60 s to observe if they learned to use spatial cues to navigate to safety (i.e., swim to the area in which the platform had been located and then spend more time in this quadrant of the pool than the other quadrants). After each trial, the mice are given a 10 min rest period in which they are transferred to a new cage with a warm towel. Data are analyzed using Noldus EthoVision software (version XT 17, Leesburg, VA, USA) with parameters measured for “latency to escape” for the acquisition trials and “quadrant time” as well as “distance and velocity of swimming” in the probe test.
# To delineate the effect of diAcCA on spatial memory, we performed the Morris water maze probe test, a widely used assessment for evaluating hippocampal-dependent memory. After diAcCA or vehicle treatment of WT and 5xFAD mice for 3 months starting at 5 months of age, the animals were initially trained for […] to ensure learning of the spatial memory task, i.e., swimming to the location of a hidden platform in the opaque water maze that the mice could stand on. Subsequently, their memory for the task was measured using the “probe test”, monitoring how well each mouse recalled the location of the platform once it had been removed from the swimming tank. This was assessed by the amount of time spent in the proper quadrant of the tank that previously housed the platform (the “target” quadrant) vs. other quadrants.
# [2] = mouse, in vivo
# Method: We tested both CA and diAcCA compounds by oral gavage/PO at 10 mg/kg. Analysis was performed by LC-MS in the Scripps Florida Drug Development Core (Jupiter, FL, USA). The compounds were formulated in olive oil. CA went into the oil with minimal stirring, but diAcCA required longer stirring. Blood was collected in hematocrit tubes and centrifuged. […] Drug is therefore likely absorbed via enterocyte passage and through chylomicron absorbance, complicating the early time points of the PK curves.
# Therefore, we decided to pre-weigh the CA into a vial and, in the vivarium, rapidly dissolve the compound in DMSO and then add Tween80/saline. The compound was dosed within five minutes of being dissolved, and the final concentrations were 5% DMSO and 95% of a 5% Tween80 solution in saline. […] Oral clearance calculations assume 100% bioavailability.
# We also determined the stability and bioavailability of diAcCA compared to CA. For this purpose, individual mice were administered CA or diAcCA IV or via oral gavage/PO. For CA, the doses were 3 mg/kg for the IV route and 10 mg/kg for oral gavage/PO, and for diAcCA 10 mg/kg by oral gavage/PO.
structure (smiles),measurement,setting,value
CC(=O)Oc1c(C(C)C)cc2c(c1OC(C)=O)[C@@]1(C(=O)O)CCCC(C)(C)[C@@H]1CC2 [diAcCA],expression of DAM genes C3 and Igf1,"[1]; 5xFAD brain, 20 or 50 mg/kg vs vehicle, n = 3",significantly downregulated
same,DAM signature (heatmap of DAM-related genes),"[1]; 5xFAD hippocampus/cortex RNA, three-month treatment, n = 3",dose-dependent decrease in DAM signature
same,GO biological pathway analysis of upregulated and downregulated genes,[1]; diAcCA-treated 5xFAD brain vs vehicle-treated,upregulation of genes enriched in pathways associated with neuroprotection
same,"Morris water maze probe test, time in the platform quadrant zone",5xFAD mice; 10 mg/kg and 20 mg/kg,spent significantly less time in the platform quadrant zone compared to WT control mice
same,"Morris water maze probe test, percentage of time in the target quadrant",5xFAD mice; 10 mg/kg,spent significantly less time in the target quadrant
same,"Morris water maze probe test, time to first enter the platform zone",5xFAD mice; 10 mg/kg,took significantly more time to first enter the platform zone compared to WT controls
same,"Morris water maze probe test, percentage of time in the target quadrant",5xFAD mice; 20 mg/kg and 50 mg/kg,spent a similar percentage of time in the target and other quadrants as the WT controls
same,"Morris water maze probe test, time to first enter the platform zone",5xFAD mice; 20 mg/kg and 50 mg/kg,took a similar amount of time compared to WT controls
same,"Morris water maze probe test, time in the platform quadrant zone",5xFAD mice; 50 mg/kg,spent similar amount of time in the platform quadrant as WT control mice
same,"Morris water maze probe test, performance (time in target quadrant, time to reach platform zone)","5xFAD mice; ≥20 mg/kg, or, for total time spent in the target quadrant, 50 mg/kg",performed significantly better
same,half-life (t1/2),[2],over 12 h
same,Cmax greater than after CA itself,[2]; po,~30%
same,Cmax of CA in plasma,"[2]; po, 10 mg/kg",5.75
same,Tmax,"[2]; po, 10 mg/kg",1.67 h
same,average half-life,"[2]; po, 10 mg/kg",12.27 h
same,mean Cmax of CA,"[2]; po, 10 mg/kg",5.75 µM
same,t1/2,"[2]; po, 10 mg/kg",12.27 h
same,time to peak plasma levels of CA after administration of diAcCA,"[2]; po, 10 mg/kg",~ 15 min
